Where a name gives a salt, the structure may show the parent alone.
`CN1CCC(c2ccc3sccc3c2)c2ccc(-c3cncnc3)cc2C1.O=C(O)/C=C\C(=O)O` (single isomer, unassigned; (+)) [Example 104, (+)-5-(benzo[b]thiophen-5-yl)-2-methyl-8-(pyrimidin-5-yl)-2,3,4,5-tetrahydro-1H-benzo[c]azepine, maleate salt] showed a melting point of 111 to 117 °C. Molecule `CN1CCC(c2ccc3sccc3c2)c2ccc(-c3cnccn3)cc2C1.O=C(O)/C=C\C(=O)O` (single isomer, unassigned; (+)) [Example 105, (+)-5-(benzo[b]thiophen-5-yl)-2-methyl-8-(pyrazin-2-yl)-2,3,4,5-tetrahydro-1H-benzo[c]azepine, maleate salt] has a melting point of 102 to 108 °C. In the case of `Cc1ccc(-c2ccc3c(c2)CN(C)CCC3c2ccc3sccc3c2)nn1.O=C(O)/C=C\C(=O)O` (single isomer, unassigned; (+)) [Example 106, (+)-5-(benzo[b]thiophen-5-yl)-2-methyl-8-(6-methylpyridazin-3-yl)-2,3,4,5-tetrahydro-1H-benzo[c]azepine, maleate salt], the melting point is reported as 105 to 109 °C. Molecule `CN1CCC(c2ccc3sccc3c2)c2ccc(-c3cccnn3)cc2C1.O=C(O)/C=C\C(=O)O` (single isomer, unassigned; (+)) [Example 107, (+)-5-(benzo[b]thiophen-5-yl)-2-methyl-8-(pyridazin-3-yl)-2,3,4,5-tetrahydro-1H-benzo[c]azepine, maleate salt] has a melting point of 117 to 121 °C. `Cc1ccc(-c2ccc3c(c2)CN(C)CCC3c2cccc(F)c2)nn1` (single isomer, unassigned; (-)) (as salt: citrate) [Example 84 (−), (−)-5-(3-fluorophenyl)-2-methyl-8-(6-methylpyridazin-3-yl)-2,3,4,5-tetrahydro-1H-benzo[c]azepine] showed a melting point of 107 to 110 °C. For `COc1ccc2c(c1)CN(C)CCC2c1ccc(F)cc1` (single isomer, unassigned; (-)) (as salt: hydrochloride) [Example 4 (−), (−)-5-(4-fluorophenyl)-8-methoxy-2-methyl-2,3,4,5-tetrahydro-1H-benzo[c]azepine], the melting point was 246 to 248 °C. `COc1ccc(C2CCN(C)Cc3cc(OC)ccc32)cc1` (single isomer, unassigned; (-)) (as salt: hydrochloride) [Example 6 (−), (−)-5-(4-methoxyphenyl)-8-methoxy-2-methyl-2,3,4,5-tetrahydro-1H-benzo[c]azepine] gave a melting point of 193 to 194 °C. With `COc1ccc2c(c1)CN(C)CCC2c1ccc(Cl)cc1` (single isomer, unassigned; (-)) (as salt: hydrochloride) [Example 8 (−), (−)-5-(4-chlorophenyl)-8-methoxy-2-methyl-2,3,4,5-tetrahydro-1H-benzo[c]azepine] the melting point was 210 to 211 °C. For `CN1CCC(c2ccc(F)cc2)c2ccc(O)cc2C1` (single isomer, unassigned; (-)) (as salt: hydrochloride) [Example 14, (−)-5-(4-fluorophenyl)-2-methyl-2,3,4,5-tetrahydro-1H-benzo[c]azepin-8-ol], the melting point was 159 to 161 °C. In the case of `CN1CCC(c2ccc(Cl)cc2)c2ccc(-c3cnccn3)cc2C1` (single isomer, unassigned; (-)) (as salt: maleate) [Example 41 (−), (−)-5-(4-chlorophenyl)-2-methyl-8-(pyrazin-2-yl)-2,3,4,5-tetrahydro-1H-benzo[c]azepine], the melting point is reported as 82 to 84 °C. In the case of `Cc1noc(C)c1-c1ccc2c(c1)CN(C)CCC2c1ccc(Cl)cc1` (single isomer, unassigned; (-)) (as salt: maleate) [Example 42, (−)-5-(4-chlorophenyl)-8-(3,5-dimethylisoxazol-4-yl)-2-methyl-2,3,4,5-tetrahydro-1H-benzo[c]azepine], the melting point is reported as 66 to 68 °C. Molecule `CN1CCC(c2ccc(Cl)cc2)c2ccc(-c3ccc(N(C)C)nn3)cc2C1` (single isomer, unassigned; (-)) (as salt: maleate) [Example 46, (−)-{6-[5-(4-chlorophenyl)-2-methyl-2,3,4,5-tetrahydro-1H-benzo[c]azepine-8-yl]-pyridazin-3-yl}-dimethylamine] has a melting point of 109 to 110 °C. For `CN1CCC(c2ccc(Cl)cc2)c2ccc(N3CCOCC3)cc2C1` (single isomer, unassigned; (-)) (as salt: maleate) [Example 47, (−)-4-(5-(4-chlorophenyl)-2-methyl-2,3,4,5-tetrahydro-1H-benzo[c]azepin-8-yl)morpholine], the melting point was 99 to 100 °C. Work on `COc1ccc2c(c1)CN(C)CCC2c1ccc2sccc2c1` (single isomer, unassigned; (-)) (as salt: maleate) [Example 52 (−), (−)-5-benzo[b]thiophen-5-yl-8-methoxy-2-methyl-2,3,4,5-tetrahydro-1H-benzo[c]azepine] yielded a melting point of 92 to 95 °C. With `CCN1CCC(c2ccccc2)c2ccc(N3CCOCC3)cc2C1` (single isomer, unassigned; (-)) (as salt: maleate) [Example 57 (−), (−)-4-(2-ethyl-5-phenyl-2,3,4,5-tetrahydro-1H-benzo[c]azepin-8-yl)morpholine] the melting point was 68 to 72 °C. `CC(C)N1CCC(c2ccccc2)c2ccc(N3CCOCC3)cc2C1` (single isomer, unassigned; (-)) (as salt: maleate) [Example 58 (−), (−)-4-(2-isopropyl-5-phenyl-2,3,4,5-tetrahydro-1H-benzo[c]azepin-8-yl)morpholine] showed a melting point of 195 to 197 °C. In the case of `CN1CCC(c2ccccc2)c2ccc(N3CCN(c4ccccn4)CC3)cc2C1` (single isomer, unassigned; (-)) (as salt: tartrate) [Example 68 (−), (−)-2-methyl-5-phenyl-8-(4-(pyridine-2-yl)piperazin-1-yl)-2,3,4,5-tetrahydro-1H-benzo[c]azepine], the melting point is reported as 112 to 115 °C. Molecule `Cc1ccc(-c2ccc3c(c2)CN(C)CCC3c2ccc(C#N)c(F)c2)nn1` (single isomer, unassigned; (-)) (as salt: tartrate) [Example 92 (−), (−)-2-fluoro-4-(2-methyl-8-(6-methylpyridazin-3-yl)-2,3,4,5-tetrahydro-1H-benzo[c]azepin-5-yl)benzonitrile] has a melting point of 122 to 127 °C.

— patent US9403776B2, “Aryl- and heteroaryl-substituted tetrahydrobenzazepines and use thereof to block reuptake of norepinephrine, dopamine, and serotonin” (Albany Molecular Research, Inc., priority 2005, dated 2016)
